Entries after “also recorded” stand apart in the source; their conditions may differ.
Legend:
tumor xenograft models = settings: cited from earlier work
MEK = settings: biochemical assays; cited from earlier work
[1] = compared with CI-1040; cited from earlier work
[2] = compared with CI-1040; cited from earlier work; remark: listed apart in the source
[3] = compared with CI-1040; cited from earlier work; remark: listed apart in the source
PR1-HRE CA9 promoter [4] = assay: PR1-HRE-luc CA9 promoter luciferase-renilla reporter assay in HEK293 cells; assay type: cell-based, human
Description: The inventors used PR1-HRE promoter region of CA9 ([…]) that contains HRE element and SP1 binding site, and assessed its transcriptional activity in luciferase-renilla reporter system. First, the PR1-HRE-luc plasmid was co-transfected together with renilla internal standard to HEK293 cells plated in high density and treated by the U0126 inhibitor of ERK (MAP kinases) for 20 h (FIG. 8). The promoter activity was analyzed in the transfected cells incubated in normoxic conditions or in the presence of DFO that can induce a chemical hypoxia. The promoter activity was determined as a ratio between the luciferase-related luminescence and renilla-related luminescence.
(§1) The PR1-HRE-luc promoter construct was generated by an insertion of a −50/+37 CA9 genomic region amplified by PCR upstream of the firefly luciferase gene in pGL3-Basic luciferase reporter vector (Promega). pRL-TK renilla vector (Promega) served for the control of the transfection efficiency.

PR1-HRE CA9 promoter [5] = assay: PR1-HRE-luc CA9 promoter luciferase-renilla reporter assay in HeLa cells; assay type: cell-based, human
From the text: as §1
Therefore, the inventors have cloned a −50/+37 CA9 genomic region, containing that module in its natural context relative to the transcription start site, upstream of the reporter luciferase gene. The PR1-HRE-luc promoter construct was then co-transfected with the renilla-coding control plasmid to HeLa cells that express CA IX protein in response to hypoxia and high cell density.

CA IX protein = assay: Immunoblotting of endogenous CA IX protein expression in HeLa cells; assay type: cell-based, human; settings: data not shown; for CA IX protein level / hypoxic induction of CA IX protein: Example 9, hypoxia
Description: HeLa cells were plated in dense (80,000 cells/cm^2) and sparse (10,000 cells/cm^2) cultures and incubated for 24 h. […] Parallel control dishes were pre-treated and maintained in normoxia for the same time period.
For the detection of CA IX, the cells were extracted with cold RIPA buffer for 15 min at 4° C. The extracts were then centrifuged (15 min at 13,000 rpm) and total protein concentrations were determined by BCA assay (Pierce, Rockford, Ill.). Samples of 30 μg total proteins were separated by the electrophoresis using 10% SDS-PAGE and blotted onto the PVDF membrane. Before immunodetection, the membrane was treated by the blocking buffer containing 5% non-fat milk in PBS with 0.2% Nonidet P-40 for 1 h and incubated for 1 h with M75 MAb diluted 1:2 in the blocking buffer. Then the membrane was washed, incubated for 1 h with the anti-mouse secondary antibody, washed again and developed with the ECL detection system. Intensity of CA IX-specific bands was analyzed by the Scion Image Beta 4.02 software (Scion Corporation, Frederick, Md.), and relative CA IX expression was expressed as percentages.

PR1-HRE CA9 promoter [6] = test system: PR1-HRE CA9 promoter
Description: To dissect a direct contribution of HIF-1 to transcriptional activation of CA9 promoter, the inventors performed an additional experiment using Ka1.13 cell line that is defective for HIF-1α. The Ka1.13 cells were transfected either with PR1-HRE-luc reporter plasmid+renilla standard+control pcDNA3.1 plasmid or with the PR1-HRE-luc reporter plasmid+renilla standard+HIF-1α cDNA.
Cultures were pre-incubated with the inhibitors 1 h before the induction of hypoxia or addition of DFO.
The cells were plated into 30 mm Petri dishes to reach approximately 60% monolayer density on the next day. Transfection was performed with the 2 μg of PR1-HRE-luc and 100 ng of pRL-TK plasmids DNAs using a GenePorterII reagent (Gene Therapy Systems, San Diego, Calif.) according to the manufacturer's recommendation. One day later, the transfected cells were trypsinized and plated in triplicates into 24-well plates at different densities so that the dense culture contained eight times more cells than the sparse one. The cells were allowed to attach for 20 h, then they were pre-treated with inhibitors for 1 h and transferred to hypoxia (or treated with DFO) for additional 24 h. Reporter gene expression was assessed 48 h after the transfection using the Dual-Luciferase Reporter Assay System (Promega) and the luciferase activity was normalized against the renilla expression.
Therefore, the Ka13 cells were plated at intermediate density, transfected with the PR1-HRE-luc promoter construct together with the renilla control plasmid and pcDNA3.1 plasmid, pre-treated with the U0126 MAPK pathway inhibitor and exposed to a DFO-induced hypoxia. Parallel dishes were maintained in absence of DFO.

[7] = Phase I and II clinical trials; cited from earlier work

Cn1cnc2c(F)c(Nc3ccc(Br)cc3Cl)c(C(=O)NOCCO)cc21 [ARRY-142886]
anti-tumor activity (tumor xenograft models): potent anti-tumor activity
selectivity for MEK (MEK): high selectivity for MEK

O=C(NOC[C@H](O)CO)c1ccc(F)c(F)c1Nc1ccc(I)cc1F [PD-0325901]
metabolic stability [1]: improved metabolic stability
anti-tumor activity (tumor xenograft models): potent anti-tumor activity
bioavailability [2]: improved
solubility [3]: more soluble

N#CC(=C(/N)Sc1ccccc1N)/C(C#N)=C(\N)Sc1ccccc1N [U0126]
PR1-HRE CA9 promoter transcriptional activity (luciferase/renilla ratio) (PR1-HRE CA9 promoter [4]; Example 1, HEK293 plated in high density, inhibitor 20 h, normoxia or DFO-induced hypoxia): down-regulation of the PR1-HRE CA9 promoter activity; also recorded: diminished PR1-HRE transcriptional activity both in normoxia and in hypoxia
CA9 promoter activity (PR1-HRE CA9 promoter [4]; Example 5, HEK293 dense culture exposed to hypoxia, data not shown): considerably inhibited; also recorded: remarkable reduction
CA9 promoter activity (PR1-HRE CA9 promoter [5]; Example 5, HeLa sparse and dense, normoxia or DFO hypoxia, 20 μM inhibitor): about fourfold decrease; also recorded: remarkable reduction
CA9 promoter activity, fraction of control value (PR1-HRE CA9 promoter [5]; Example 8, dense hypoxic (1% O2) HeLa, 20 μM U0126, 10 μM LY294002): about one third
effect on CA9 promoter activity (PR1-HRE CA9 promoter [5]; Example 8, normoxic and sparse HeLa cells, compared with dense hypoxic cells): less pronounced
CA IX protein expression (Western blotting) (CA IX protein; Example 2, sparse and dense HeLa, normoxia (21% O2) and hypoxia (2% O2)): evident also at the level of CA IX protein
endogenous CA IX protein levels (CA IX protein; Example 5, HeLa, hypoxia and/or high density): corresponded with the promoter activities
CA IX protein level / hypoxic induction of CA IX protein (CA IX protein; HeLa): reduced the CA IX protein level
PR1-HRE CA9 promoter transcriptional activity (PR1-HRE CA9 promoter [6]; Example 3, Ka1.13 cells with control pcDNA3.1 or HIF-1α cDNA): reduced the CA9 promoter activity in both the presence and absence of HIF-1α; also recorded: diminished transcription from PR1-HRE promoter both in the presence and in the absence of HIF-1α
CA9 promoter activity, fraction of HIF-1α induced value (PR1-HRE CA9 promoter [6]; Example 6, Ka13 co-transfected with wild-type HIF-1α cDNA): approximately one third
CA9 promoter activity, remaining fraction (PR1-HRE CA9 promoter [6]; Example 6, Ka13 with empty pcDNA3.1 (no HIF-1α), with and without DFO): less than a half

Rencarex: an MN-specific drug tested in Phase I and II clinical trials
tolerability / drug-related side effects [7]: well-tolerated, with no serious drug-related side effects

mithramycin A [MMA]
CA IX protein level / hypoxic induction of CA IX protein (CA IX protein; HeLa): reduced the CA IX protein level
